From publication PMC12424289, “Programmable Nanostructure Assembly of a Paclitaxel Derivative Enables Tunable Anticancer Therapy via Hydrogen Bond Engineering” (ACS Nano, 2025)

Key:
[1] = Degradation of PTP assemblies in aqueous solution (HPLC); assay type: physicochemical; settings: 37 °C
Procedure: PTP, PTP@PEG, and PTP@HA (200 μL, 0.1 mg·mL^–1) solutions were sealed in ampules and incubated at 37 °C with agitation at 100 rpm. Samples were collected in triplicate at scheduled intervals, treated with acetonitrile, vortexed for 1 min, and analyzed using HPLC. Degradation rate constants (k) were calculated by plotting the natural logarithm of the concentration ratio (ln c/c0) versus time, with the slopes of the linear regression plots representing the rate constants.

[2] = test system: human ovarian SKOV3 cells; experiment: CCK8 antiproliferation assay, SKOV3; assay type: cell-based; settings: SK-OV-3, SKOV3, 48 h treatment
Procedure: (§1) The mouse breast cancer cell line 4T1 and the human ovarian cancer cell line SKOV3 were cultured in RPMI 1640 medium supplemented with 10% fetal bovine serum, 100 units·mL^–1 penicillin, and 100 μg·mL^–1 streptomycin. The human lung cancer cell line A549 and the luciferase-expressing human colorectal carcinoma cell line HCT116-Luc were cultured in high-glucose DMEM medium supplemented with 10% fetal bovine serum, 100 units·mL^–1 penicillin, and 100 μg·mL^–1 streptomycin. All cell lines were maintained at 37 °C in a Steri-Cycle 371 incubator (Thermo Scientific, USA) with a humidified atmosphere of 5% CO2. Only cells between passages 5 and 15 were used for cell-based experiments.
(§2) The antiproliferative activity of PTP was evaluated using the Cell Counting Kit-8 (CCK8) assay. PTX solution served as a positive control. Cell suspensions were prepared at a density of 3 × 10^4 cells·mL^–1 and seeded in 96-well plates at a volume of 100 μL per well. The plates were incubated for 24 h to allow cell attachment and growth. Subsequently, the culture media were replaced with fresh media containing varying concentrations of PTX or PTP solutions (100 μL per well), and the cells were incubated for an additional 48 h (n = 3). Control wells received fresh culture media alone (n = 3). […] Finally, the absorbance was measured at 450 nm using a microplate reader (Synergy H1, BioTek, USA). […]

[3] = Solid-state storage stability of PTP; assay type: physicochemical; settings: stored at −20 °C for 6 months; initial purity 98.5%
Procedure: For solid-state stability, 5.0 mg PTP was sealed in glass bottles and stored under controlled conditions in stability chambers (MMM Climacell-E, Germany). The samples were stored at 40 ± 2 °C and 75 ± 5% relative humidity, and 25 ± 2 °C and 60 ± 5% RH. Additional samples were stored at 4 °C and −20 °C in a refrigerator (BCD-610W, Siemens, Germany). At scheduled intervals, triplicate samples from each condition were analyzed for purity by HPLC.

human lung A549 cells = experiment: CCK8 antiproliferation assay, A549; assay type: cell-based; settings: A549, 48 h treatment
Procedure: as §1, §2

mouse breast 4T1 cells = experiment: CCK8 antiproliferation assay, 4T1; assay type: cell-based; settings: 4T1, 48 h treatment
Procedure: as §1, §2

tubulin = experiment: Isothermal titration calorimetry with tubulin; assay type: binding; settings: tubulin 180 μM titrated into 25 μM compound
Procedure: ITC experiments were performed using a Nano-ITC (TA Instruments, USA) with all samples degassed for 8 min prior to measurement. Experiments were conducted under stirring at 350 rpm. To account for background signals, control experiments were conducted and subtracted from the test data. The resulting heat values were analyzed using an independent model to extract thermodynamic parameters. For tubulin binding studies, solutions were prepared in PEM buffer containing 5% (v/v) DMSO. In each experiment, 400 μL of the […] was loaded into the sample cell, and 400 μL of PEM buffer with 5% (v/v) DMSO was placed in the reference cell. Tubulin solution (180 μM) was titrated into the sample cell in 25 injections of 2 μL each at 4 °C. A control titration of tubulin into PEM buffer (5% DMSO) was performed to account for dilution effects. To assess interactions between PTP and excipients, PTP dispersions (25 μM) were loaded into the sample cell, and water was used in the reference cell. PEG400 solution (6.0 mg·mL^–1) was titrated into a 2.0 mg·mL^–1 PTP dispersion, and HA (2.7 mg·mL^–1) into a 1.0 mg·mL^–1 PTP dispersion. Both titrations were performed at 25 °C with 25 injections of 2 μL each. Control experiments were performed by titrating PEG400 or HA into water to correct for nonspecific heat effects.

[4] = test system: human colon HCT116-Luc cells; experiment: CCK8 antiproliferation assay, HCT116-Luc; assay type: cell-based; settings: 48 h treatment
Procedure: as §1, §2

[5] = Appearance on dissolving/dispersing in water or excipient solution; assay type: physicochemical; settings: 5.0 mg·mL^–1 drug; with 260.0 mg·mL^–1 PEG400 or 20.0 mg·mL^–1 HA where named
Procedure: PTP self-assemblies were prepared by adding 5.0 mg of PTP to 1.0 mL of a water, followed by vortexing for 1 min. For PTP@PEG coassemblies, 260.0 mg of PEG400 was mixed with 1.0 mL of the chosen water-based solution. This PEG400 solution was then added to 5.0 mg of PTP powder, and the resulting mixture was vortexed for 1 min. PTP@HA coassemblies were prepared by first dispersing 20.0 mg of HA in 1.0 mL of the selected water-based solution. Following this step, the resulting HA solution was added to 5.0 mg of PTP powder. The final mixture was vortexed for 1 min. To prepare the PTX@PEG control system, 1.3 g of PEG400 was mixed with 5.0 mL of water. Then, 25.0 mg of PTX was added to the solution, and the mixture was vortexed for 1 min. Similarly, the PTX@HA control system was prepared by dispersing 100.0 mg of HA in 5.0 mL of water. Subsequently, 25.0 mg of PTX was added, and the mixture was vortexed for 1 min.

[6] = In vitro PTP release (transwell, PBS); assay type: physicochemical; settings: over 12 h, 5.0 mg·mL^–1 PTP
Procedure: The in vitro drug release from the PTP assemblies and PTP@HA was assessed in 1 × PBS (pH 7.4). A 0.1 mL dispersion of PTP (5.0 mg·mL^–1) or PTP@HA (equivalent to 5.0 mg·mL^–1 PTP and 20.0 mg·mL^–1 HA) in saline was added to the upper chamber of a 24-well transwell plate (#3413, Corning, USA) equipped with a 0.4 μm polycarbonate membrane (n = 3). The lower chamber contained 0.6 mL 1 × PBS. The setup was maintained at 37 °C with shaking at 100 rpm. At specified time intervals, the PBS in the lower chamber was replaced with fresh PBS. Each collected sample was mixed with 600 μL acetonitrile and vortexed for 1 min. PTP release and PTX degradation products were quantified by HPLC.

SMILES: CC(=O)O[C@H]1C(=O)[C@@]2(C)[C@H]([C@H](OC(=O)c3ccccc3)[C@]3(O)C[C@H](OC(=O)[C@H](OC(=O)CCP(=O)(O)O)[C@@H](NC(=O)c4ccccc4)c4ccccc4)C(C)=C1C3(C)C)[C@]1(OC(C)=O)CO[C@@H]1C[C@@H]2O [PTP, PTX-2’–OOC-P]
- degradation rate constant (k) ([1]; 0.1 mg·mL^–1 in 5% glucose (5% G)): 2.3 × 10^–2 day^–1
- degradation rate constant (k) ([1]; 0.1 mg·mL^–1 in phosphate buffer saline (PBS)): 1.3 day^–1
- degradation rate constant (k) ([1]; 0.1 mg·mL^–1 in saline): 3.2 × 10^–2 day^–1
- degradation rate constant (k) ([1]; 0.1 mg·mL^–1 in water): 8.0 × 10^–2 day^–1
- IC50 [2]: 31.2 nM
- purity after storage [3]: 98.1%
- IC50 (human lung A549 cells): 13.2 nM
- IC50 (mouse breast 4T1 cells): 82.4 nM
- molar ratio of tubulin to compound (tubulin; ITC): 1.6
- Gibbs free energy change (ΔG) (tubulin; 5% DMSO, 4 °C): −26.8 kJ·mol^–1
- IC50 [4]: 12.5 nM
- appearance of the system [5]: transparent solution
- total release of PTP ([6]; PBS pH 7.4, 37 °C): 40.6%
- average release rate ([6]; PBS pH 7.4, 37 °C (data not shown)): 17.5 μg·h^–1
